Measured values published in patent publication US5858702A, “Isolation, cloning and expression of transmembrane water channel Aquaporin 5 (AQP5)” (The Johns Hopkins University, priority 1995, dated 1999).

Key:
human RBC = conditions: cited from earlier work
CHIP28 = target: T1, CHIP28 (Homo sapiens, UniProt P29972); assay: Stopped-flow water flux (Pf) in CHIP28 proteoliposomes, effect of mercurial reagents; format: biochemical; conditions: 1 mM
T1 construct: was comprised of AQP1 (the 28-kDa protein itself and the 35-60-kDa glycosylated protein); from tissue; host or cells: human erythrocytes (blood-bank units; small-scale purifications from freshly drawn whole blood)
T1 sequence (P29972 2-269 limits assumed): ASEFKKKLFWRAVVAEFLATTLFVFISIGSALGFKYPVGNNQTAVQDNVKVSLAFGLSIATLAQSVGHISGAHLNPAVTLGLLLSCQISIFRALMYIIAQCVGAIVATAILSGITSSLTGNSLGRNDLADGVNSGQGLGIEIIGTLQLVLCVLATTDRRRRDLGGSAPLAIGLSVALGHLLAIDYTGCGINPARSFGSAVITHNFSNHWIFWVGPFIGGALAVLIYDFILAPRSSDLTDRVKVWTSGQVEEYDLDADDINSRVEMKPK
Procedure: Purified AQP1 was stored overnight at 0° C. or frozen for several days at -80° C. prior to reconstitution. Reconstitution into proteoliposomes was carried out in a final volume of 1 ml containing 60-90 μg of purified AQP 1 protein in chromatography buffer, 9 mg of bath-sonicated E. coli phospholipid, 1.25% (w/v) octyl glucoside, and 50 mM Tris-HCl (pH 7.5). The mixture was briefly blended on a vortex mixer and incubated for 20 minutes on ice. Proteoliposomes (or liposomes prepared without protein) were formed at room temperature by rapidly injecting the mixture into 25 ml of buffer A [50 mM MOPS, pH 7.5, 150 mM N-methyl-D-glucamine (NMDG) chloride also containing 10-15 mM carboxyfluorescein, 1 mM dithiothreitol, and 0.5 mM PMSF]. For the measurement of proton permeability, proteoliposomes and liposomes were loaded with buffer B (5 mM MOPS, pH 7.5, 150 mM KCl, 0.5 mM carboxyfluorescein, 1 mM dithiothreitol, and 0.5 mM PMSF). The suspension was incubated for 20 minutes at room temperature. Proteoliposomes or liposomes were collected by centrifugation for 1 hour at 123000×g in a Beckman Type 42.1 rotor at 4° C. The pellet was resuspended in 8 ml of buffer A or B and then centrifuged for 1 hour at 152000×g in a Beckman Type 50 Ti rotor. Proteoliposomes or liposomes were resuspended in 300 μl of buffer A or B and stored at 4° C. for 16-24 hours. Typically 50% (54±6%, n=5) of the AQP1 protein and 70% of the phospholipid were recovered in proteoliposomes. The lipid to protein ratio was in the range of 120:1 to 219:1. These proteoliposomes have internal volumes of 1 μl/mg of phospholipid (Ambudkar and Maloney, 1986, J. Biol. Chem. 261:10079-10086). Protein and phospholipid were measured as described by Ambudkar & Maloney (J. Biol. Chem., 1986, 261:10079-10086).
(§1) Permeability measurements. Membrane permeability measurements (Pf) were measured by exposing AQP1 proteoliposomes or control liposomes to an osmotic gradient by rapid mixing with an equal volume of another solution containing buffer A plus sufficient sucrose to increase osmolality in the mixed solutions to a value 120% of that in the original solution. This was performed with a stopped-flow fluorometer (SF.17MV, Applied Photophysics, Leatherhead, U.K.) with a measured dead time of 0.7 ms. The excitation wavelength was set at 490±1.5 nm using a 150-W mercury-xenon arc lamp and monochromator (.function.3.4 grating monochromator, both from Applied Photophysics); the emission wavelength was >515 nm using a cut-on filter (Oriel Corp., Stratford, Conn.). Extravesicular carboxyfluorescein fluorescence was completely quenched using anti-fluorescein antibody (Harris et al., 1990, Am. J. Physiol. 259:F366-F371).
Within the range of osmolalities used in these experiments, the vesicles acted as perfect osmometers, and relative volume (absolute volume divided by initial volume) was linearly related to relative fluorescence (absolute fluorescence divided by initial fluorescence). The data obtained from 8 to 16 determinations was averaged and fit to single-exponential curves using 5 software provided by Applied Photophysics (Zeidel et al., 1992, Biochemistry 31:589-596). The fitting parameters were then used to determine Pf by first applying the linear conversion from relative fluorescence to relative volume and then iteratively solving the water permeability equation using MathCAD software (MathSoft, Cambridge, Mass.):
dV(t)/dt=(Pf)(SAV)(MVW)[(Cin /V(t))-Cout ] (1)
where V(t) is relative intravesicular volume as a function of time, Pf is osmotic water permeability in centimeters per second, SAV is the vesicle surface area to volume ratio, MVW is the molar volume of water (18 cm^3 /mol), and Cin and Cout are the initial concentrations of total solute inside and outside the vesicle, respectively (Zeidel et al., 1992, Biochemistry 31:589-596).
Effect of mercural reagents.

[1] = Stopped-flow water flux (Pf) in control liposomes, effect of mercurial reagents; format: biochemical; conditions: 1 mM mercurial
Procedure: (§2) Purified AQP1 was stored overnight at 0° C. or frozen for several days at -80° C. prior to reconstitution. Reconstitution into proteoliposomes was carried out in a final volume of 1 ml containing 60-90 μg of purified AQP 1 protein in chromatography buffer, 9 mg of bath-sonicated E. coli phospholipid, 1.25% (w/v) octyl glucoside, and 50 mM Tris-HCl (pH 7.5). The mixture was briefly blended on a vortex mixer and incubated for 20 minutes on ice. […] Protein and phospholipid were measured as described by Ambudkar & Maloney (J. Biol. Chem., 1986, 261:10079-10086).
as §1, with “The excitation wavelength was set at 490±1.5 nm using a 150-W mercury-xenon arc lamp and monochromator (.function.3.4 grating monochromator, both from Applied Photophysics); the emission wavelength was >515 nm using a cut-on filter (Oriel Corp., Stratford, Conn.).” left out, “259:F366-F371). […]” for “259:F366-F371).”

[2] = Proton permeability (PH+) of CHIP28 proteoliposomes; format: biochemical; conditions: 1 μM gramicidin A added to vesicles
Procedure: as §2, with “ice. Proteoliposomes (or liposomes prepared without protein) were formed at room temperature by rapidly injecting the mixture into 25 ml of buffer A [50 mM MOPS, pH 7.5, 150 mM N-methyl-D-glucamine (NMDG) chloride also containing 10-15 mM carboxyfluorescein, 1 mM dithiothreitol, and 0.5 mM PMSF].” for “ice.”
Exclusion of protons. […] Proton permeability was measured in CHIP28-containing liposomes containing 150 mM KCl and 5 mM MOPS, incorporating 1 μM valinomycin to prevent accumulation of protons from generating a positive intravesicular voltage. […] Over the pH range employed, fluorescence was linearly related to pH; extravesicular fluorescence was quenched with anti-fluorescein antibody. To ensure that increases in PH+ caused by CHIP28 could have been detected, 1 μM gramicidin A was added and increased PH+ by over 50-fold in each experiment.

Xenopus oocytes = assay: Two electrode voltage clamp of AQP5-expressing oocytes; format: cell-based; conditions: electrophysiological studies, not shown
Procedure: Functional expression in Oocytes--A 1-kb BamHI fragment containing the 5' untranslated sequence and the entire open reading frame of the salivary cDNA was blunt-end-ligated into the BglII site of the Xenopus expression construct pXβG, which contains the HindIII-Pst insert of pSP64T in pBS II KS (Preston et al., 1992, Science, 256:385-387). Capped cRNA was synthesized in vitro after digestion with Xbal (Preston et al., 1993). Defolliculated stage V-VI Xenopus oocytes were injected with 50 nl of water or up to 5 ng of sample cRNAs and incubated for 3 days at 18° C. in 200 mosM modified Barth's buffer. The oocytes were transferred to 70 mosM modified Barth's buffer at 21° C.; oocyte swelling was monitored by videomicroscopy, and the coefficient of osmotic water permeability (Pf) was determined (Preston et al., 1992, 1993). Uptake of [^14 C]urea or [^14 C]glycerol was measured by incubating oocytes in 200 mosM Barth's buffer for 10-20 min at 21° C. followed by washing and SDS solubilization. No increase in ion conductance was found when control oocytes were compared to RNA-injected oocytes by two electrode voltage clamps (Preston et al, 1992).

In the case of `O=C(CCc1ccc(O)cc1)c1c(O)cc(O)cc1O` [Phloretin], the “urea flux in human RBC” value (human RBC) is listed as “inhibits urea flux” and the “water flux in human RBC” value (human RBC) is listed as “without altering water flux”.

For `O=S(=O)([O-])c1cc[c]([Hg][Cl])cc1` [pCMBS, p-chloromercuribenzene sulfonate], the “inhibition of Pf at 5 and 10 minutes” value (CHIP28; 37° C.) was “partial”, the “time to complete inhibition of Pf” value (CHIP28; 37° C.) was 20 to 30 min and the “Pf in CHIP28 proteoliposomes after mercurial” value (CHIP28; 37° C. (FIG. 12: pCMBS 25 minutes, HgCl2 3 minutes)) was 0.009±0.005 cm/s. For the same molecule, the “effect on the Pf of control liposomes” value [1] was “Neither pCMBS nor HgCl2 had any effect”.

With gramicidin A the “increase of PH+” value [2] was “over 50 fold”.

B1: AQP5: 265-residue rat salivary water channel protein, 5th mammalian Aquaporin (protein, UniProt P47864 1-265, looked up)
Aquaporin-5: MKKEVCSLAFFKAVFAEFLATLIFVFFGLGSALKWPSALPTILQISIAFGLAIGTLAQALGPVSGGHINPAITLALLIGNQISLLRAVFYVAAQLVGAIAGAGILYWLAPLNARGNLAVNALNNNTTPGKAMVVELILTFQLALCIFSSTDSRRTSPVGSPALSIGLSVTLGHLVGIYFTGCSMNPARSFGPAVVMNRFSPSHWVFWVGPIVGAMLAAILYFYLLFPSSLSLHDRVAVVKGTYEPEEDWEDHREERKKTIELTAH
For B1, the membrane conductance (Xenopus oocytes) was “failed to reveal increased membrane conductance”.
